Read-outs that look alike come from different tables or passages of the source.
Columns and labels:
Format in all cases: cell-based
[1] = molecular target: endogenous human androgen receptor (hAR) (Homo sapiens, UniProt P10275); experiment: Activation of hAR-responsive luciferase reporter in MDA-MB-453 cells
Experimental: A functional assay was conducted to determine the ability of test substances to modulate gene expression via endogenous human androgen receptor (hAR) in a human cell line. A luciferase reporter assay was utilized to establish the ability of test compounds to activate hAR-regulated gene expression in a human cell line containing endogenously expressed hAR (MDAMB-453 cells) transfected with an androgen-responsive luciferase reporter plasmid containing the cDNA for firefly luciferase. MDA-MB-453 cells were transfected with a plasmid containing the cDNA for firefly luciferase (LUC) under the control of a conditional promoter containing hormone response elements recognized by AR (MMTV-LUC) and a P-galactosidase expression plasmid (pRS-(3-Gal) for normalization of transfection efficiency. The reporter plasmid MMTVLUC contains the mouse Mammary Tumor Virus (MMTV) Long Terminal Repeat (LTR) conditional promoter containing hormone response elements recognized by hAR. The luciferase response was calculated as: Luciferase response/β-gal rate where
Luciferase response=Relative Luciferase Units (RLU) and
β-gal rate=β-gal 0.D.415/β-Gal incubation time in minutes.
The mean of the normalized response at each concentration of compound was calculated. The effective concentration that produced 50% of the maximum response (EC50) was determined for each compound by interpolation between two concentrations spanning the midpoint of the concentration-response curve. Agonist efficacy for test compounds was calculated as a percent of normalized response relative to the maximum normalized response by the reference agonist DHT.

[2] = tested on: human skeletal α-actin promoter activity; experiment: Skeletal α-actin promoter assay (C2C12 cells transfected with human AR); conditions: for EC50: C2C12, read-out: EC50, activation of skeletal α-actin promoter; for efficacy, % of DHT: C2C12 mouse muscle cells
Source text: An exemplary assay for measuring AR-mediated gene expression in mouse muscle cells is the human skeletal α-actin assay. A mouse muscle cell line (C2C12, obtained from American Type Cell Culture (ATCC, Rockville, Md.)) can be used in the luciferase reporter assay. An SK α-actin-LUC reporter plasmid is constructed by inserting the skeletal α-actin promoter sequence into a luciferase reporter vector (e.g., by cloning the human skeletal α-actin promoter region from −77 to +202 bp from human liver genomic DNA (Clontech, Palo Alti, Calif.) and inserting the sequence into a pGL3-Basic reporter plasmid (Promega, Madison, Wis.)). The C2C12 cell line can be transiently transfected with a human AR expression plasmid and a luciferase reporter plasmid containing the skeletal α-actin promoter upstream of the luciferase cDNA. The compounds to be tested are added to the cells after transfection and after 24 hours of incubation, the cells are lysed with a detergent-containing buffer and assayed for luciferase activity.
Compound 102 was tested to determine its ability to activate human skeletal α-actin using the skeletal α-actin promoter assay. A mouse muscle cell line (C2C12) was transiently transfected with a human AR expression plasmid and a luciferase reporter plasmid containing the skeletal α-actin promoter upstream of the luciferase cDNA. C2C12 cells (at a concentration of 5×10^5) were seeded in a T25 flask and cultured for 24 hours. The cells were harvested by using trypsin and seeded at 6000 cells/well in 96-well plates. The same day, a non-liposomal formulation, FuGENE 6 reagent (Roche, Indianapolis, Ind.) was used for transfection of the cells. To each well was added 45.5 ng of the skeletal α-actin-LUC reporter plasmid, 4.55 ng pRShAR and 5 ng pRS-BG as carrier DNA. Twenty-four hours after transfection, different concentrations of the solvated compound (10^−10 to 10^−6 M) were added in triplicate to the cells and the cells were incubated for 24 hours. The medium was aspirated and the cells were lysed with a detergent-containing buffer. After addition of Luciferase Assay Buffer to each well, the cells were assayed for luciferase activity using a luminometer to determine the level of transcriptional activation.

[3] = tested on: TNFα-IL-1β-induced IL-6 promoter activity; experiment: IL-6 promoter repression assay (Saos-2 human osteoblast cells transfected with human AR); conditions: for IC50: Homo sapiens, read-out: average IC50, suppression of TNFα-IL-1β-induced IL-6 promoter activity
Source text: An exemplary cotransfection assay for measuring AR-mediated effects on bone measures the modulation of IL-6 promoter activity. IL-6 is an important bone resorption factor (Jilka et al, Science 257: 88-91 (1992); Bellido et al., J Clin Invest 95: 2886-2895 (1995)). Overexpression of IL-6 can cause severe bone loss in vivo. […] It has been reported that androgens regulate IL-6 mRNA by suppressing NFKB binding to its response element (Keller et al., J Biol Chem 271: 26267-26275 (1996)). Thus, the AR-mediated modulation of IL-6 promoter activity provides an excellent marker for studying androgen action in bone. The assay is a cotransfection assay that measures the ability of compound to repress gene expression via the human androgen receptor from the IL-6 promoter using a luciferase reporter assay in human osteoblast cells.
A human osteoblast cell line (Saos-2, available from American Type Cell Culture (ATCC, Rockville, Md.)) can be used in the luciferase reporter assay. An IL-6-LUC reporter plasmid can be constructed by inserting the IL-6 promoter sequence into a luciferase reporter vector (e.g., by cloning the human IL-6 promoter region from −232 to +17 bp from human liver genomic DNA (Clontech, Palo Alti, Calif.) and inserting the sequence into a pGL2-enhancer reporter plasmid (Promega, Madison, Wis.)). The Saos-2 cell line can be transiently transfected with a human AR expression plasmid and a luciferase reporter plasmid containing the IL-6 promoter upstream of the luciferase cDNA. The compounds to be tested are added to the cells after transfection and after 24 hours of incubation, the cells are lysed with a detergent-containing buffer and assayed for luciferase activity. The EC50 is determined from the concentration response curve for the compound, and the inhibitory effect on TNFα/IL-1β induction (% inhibition) can be calculated according to the equation: […]
IL-6 is an important bone resorption factor. Over-expression of IL-6 can cause severe bone loss in vivo. Reducing IL-6 production by bone cells would be therapeutically beneficial by reducing bone resorption. Compound 102 and the androgen receptor modulators LG0893410 and LG0893411 were tested to determine their ability to suppress TNFα-IL-1β-induced IL-6 promoter activity in Saos-2 human osteoblast cells using a cotransfection assay. A human osteoblast cell line (Saos-2) was transiently transfected with a human AR expression plasmid and a luciferase reporter plasmid containing the IL-6 promoter upstream of the luciferase cDNA. Saos-2 cells were seeded at 6000 cells/well in 96-well plates. The same day, a non-liposomal formulation, FuGENE 6 reagent (Roche, Indianapolis, Ind.) was used for transfection of the cells. To each well was added […] of the IL-6-LUC reporter plasmid and 0.7 μg of pCMV-hAR. Twenty-four hours after transfection, different concentrations of the solvated compound (10^−11 to 10^−6 M) in DMEM (Dulbecco's Minimal Essential Media) were added in triplicate to the cells and the cells were incubated for 24 hours. The expression of luciferase was stimulated by the cytokines Tumor Necrosis Factor α (TNFα, 10 ng/mL) and Interleukin-1 beta (IL-1β, 1 ng/mL). The medium was aspirated and the cells were lysed with a detergent-containing buffer. After addition of Luciferase Assay Buffer to each well, the cells were assayed for luciferase activity using a luminometer to determine the level of transcriptional activation.

[4] = MDA-MB-453 cells, MMTV-LUC; read-out: EC50, activating hAR-responsive luciferase reporter

Sequence of endogenous human androgen receptor (hAR) (P10275 whole entry): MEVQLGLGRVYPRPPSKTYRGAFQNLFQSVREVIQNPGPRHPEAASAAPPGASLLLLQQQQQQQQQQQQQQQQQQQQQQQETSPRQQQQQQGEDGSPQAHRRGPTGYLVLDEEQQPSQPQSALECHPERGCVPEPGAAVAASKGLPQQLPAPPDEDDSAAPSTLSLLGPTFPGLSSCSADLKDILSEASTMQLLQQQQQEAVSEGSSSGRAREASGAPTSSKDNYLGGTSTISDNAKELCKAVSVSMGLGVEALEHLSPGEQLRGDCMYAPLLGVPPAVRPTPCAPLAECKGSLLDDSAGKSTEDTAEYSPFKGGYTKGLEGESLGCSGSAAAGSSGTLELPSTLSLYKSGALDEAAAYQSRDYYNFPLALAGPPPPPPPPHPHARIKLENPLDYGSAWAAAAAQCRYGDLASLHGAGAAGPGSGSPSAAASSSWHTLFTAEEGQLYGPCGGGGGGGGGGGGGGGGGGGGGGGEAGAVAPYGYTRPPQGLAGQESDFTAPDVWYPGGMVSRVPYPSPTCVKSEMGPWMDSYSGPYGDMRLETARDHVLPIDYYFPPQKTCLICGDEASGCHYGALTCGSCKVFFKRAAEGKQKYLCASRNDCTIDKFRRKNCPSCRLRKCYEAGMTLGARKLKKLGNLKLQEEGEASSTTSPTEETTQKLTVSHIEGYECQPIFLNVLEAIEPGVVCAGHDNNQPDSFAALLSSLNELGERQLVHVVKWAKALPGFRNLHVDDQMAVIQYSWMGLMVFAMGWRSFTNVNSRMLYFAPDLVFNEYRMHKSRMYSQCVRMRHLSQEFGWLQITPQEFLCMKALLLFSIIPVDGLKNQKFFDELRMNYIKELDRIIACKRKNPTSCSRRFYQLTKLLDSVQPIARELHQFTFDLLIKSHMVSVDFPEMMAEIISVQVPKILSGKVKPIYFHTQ

| Structure (SMILES) | more potent than LG0893410 and LG0893411 in activating hAR-responsive luciferase reporter ([1]; ratio of EC50) [times] | EC50 ([1]; read-out: EC50, activating hAR-responsive luciferase reporter; MDA-MB-453 cells, MMTV-LUC) [nM] | EC50 [2] [nM] | efficacy, % of DHT [2] [%] | increase of skeletal α-actin promoter activity compared to vehicle control ([2]; concentration 1×10^−7 M) | more potent in stimulating muscle cells than LG0893410 and LG0893411 ([2]; ratio of EC50) | IC50 ([3]; Saos-2 cells) [nM] | efficacy, % of DHT ([3]; Saos-2 cells) [%] | more potent than LG0893410 and LG0893411 in suppressing IL-6 promoter activity ([3]; ratio of IC50) | EC50 [1, 4] [nM] |
| --- | --- | --- | --- | --- | --- | --- | --- | --- | --- | --- |
| N#Cc1ccc(N2CCC[C@@H]2[C@@H](O)C(F)(F)F)cc1C(F)(F)F [Compound 102, R,R-4-(2-(1-Hydroxyl-2,2,2-trifluoroethyl)-pyrrolidinyl)-2-trifluoromethyl-benzonitrile] | 8.5 to 12.5 | 2.8 | 8.7 | 93 | about 17.5 fold | 5-10 fold | 0.41 | 97 | 3-4 fold |  |
| O=[N+]([O-])c1ccc(N2CCC[C@@H]2[C@@H](O)C(F)(F)F)cc1C(F)(F)F [LG0893410, R,R-2,2,2-trifluoro-1-[1-(4-nitro-3-trifluoromethyl-phenyl)-pyrrolidin-2-yl]-ethanol] |  |  | 45.2 | 43 |  |  | 1.2 |  |  | 24.2 |
| O=[N+]([O-])c1ccc(N2CCC[C@@H]2[C@H](O)C(F)(F)F)cc1C(F)(F)F [LG0893411, S, R-2,2,2-trifluoro-1-[1-(4-nitro-3-trifluoromethyl-phenyl)-pyrrolidin-2-yl]-ethanol] |  |  | 85.6 | 59 |  |  | 1.5 |  |  | 35 |

Reference: patent US11358931B2, “Selective androgen receptor modulators (SARMs) and uses thereof” (priority 2007, dated 2022)
